Assay results: ChEMBL document CHEMBL1201862, “PubChem BioAssay data set” (2004)
Activity calls are given as the source filed them.

What was measured:
[1] = biological target: T1, Cytochrome P450 1A2 (Homo sapiens, UniProt P05177);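 also: PubChem cytochrome P450 panel assay, CYP1A2 panel member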
T1 sequence (P05177 whole entry): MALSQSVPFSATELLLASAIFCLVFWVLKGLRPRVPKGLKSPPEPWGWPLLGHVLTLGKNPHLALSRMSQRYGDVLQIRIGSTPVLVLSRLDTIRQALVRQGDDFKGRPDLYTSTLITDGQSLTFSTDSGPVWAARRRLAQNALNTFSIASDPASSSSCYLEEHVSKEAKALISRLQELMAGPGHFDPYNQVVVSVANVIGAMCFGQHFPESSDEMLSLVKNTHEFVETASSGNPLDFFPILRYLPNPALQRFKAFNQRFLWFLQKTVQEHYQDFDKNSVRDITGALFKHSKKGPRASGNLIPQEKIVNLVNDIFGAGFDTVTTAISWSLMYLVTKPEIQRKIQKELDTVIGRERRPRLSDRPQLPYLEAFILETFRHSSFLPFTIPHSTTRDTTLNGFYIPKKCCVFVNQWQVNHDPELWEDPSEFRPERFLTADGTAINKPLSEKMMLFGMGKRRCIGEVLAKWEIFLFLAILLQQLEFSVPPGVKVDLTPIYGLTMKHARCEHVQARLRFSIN

[2] = biological target: Cytochrome P450 2C9 (Homo sapiens, UniProt P11712)
Cytochrome P450 2C9, sequence (P11712 whole entry): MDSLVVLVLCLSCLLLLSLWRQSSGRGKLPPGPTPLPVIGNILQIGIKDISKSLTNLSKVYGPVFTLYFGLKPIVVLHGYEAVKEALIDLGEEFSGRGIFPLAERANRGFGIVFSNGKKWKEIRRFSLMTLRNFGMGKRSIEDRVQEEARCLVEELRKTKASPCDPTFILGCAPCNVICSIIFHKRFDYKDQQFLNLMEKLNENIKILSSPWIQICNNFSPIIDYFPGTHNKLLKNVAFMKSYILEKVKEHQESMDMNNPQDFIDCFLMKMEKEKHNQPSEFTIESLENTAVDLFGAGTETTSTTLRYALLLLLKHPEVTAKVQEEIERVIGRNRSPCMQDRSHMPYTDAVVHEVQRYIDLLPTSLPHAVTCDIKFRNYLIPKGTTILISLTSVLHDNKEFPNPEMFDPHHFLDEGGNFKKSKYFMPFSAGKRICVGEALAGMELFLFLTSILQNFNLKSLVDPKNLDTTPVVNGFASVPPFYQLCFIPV

[3] = biological target: Cytochrome P450 2D6 (Homo sapiens, UniProt P10635);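 also: CYP2D6 member of a cytochrome P450 panel assay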
Cytochrome P450 2D6, sequence (P10635 whole entry): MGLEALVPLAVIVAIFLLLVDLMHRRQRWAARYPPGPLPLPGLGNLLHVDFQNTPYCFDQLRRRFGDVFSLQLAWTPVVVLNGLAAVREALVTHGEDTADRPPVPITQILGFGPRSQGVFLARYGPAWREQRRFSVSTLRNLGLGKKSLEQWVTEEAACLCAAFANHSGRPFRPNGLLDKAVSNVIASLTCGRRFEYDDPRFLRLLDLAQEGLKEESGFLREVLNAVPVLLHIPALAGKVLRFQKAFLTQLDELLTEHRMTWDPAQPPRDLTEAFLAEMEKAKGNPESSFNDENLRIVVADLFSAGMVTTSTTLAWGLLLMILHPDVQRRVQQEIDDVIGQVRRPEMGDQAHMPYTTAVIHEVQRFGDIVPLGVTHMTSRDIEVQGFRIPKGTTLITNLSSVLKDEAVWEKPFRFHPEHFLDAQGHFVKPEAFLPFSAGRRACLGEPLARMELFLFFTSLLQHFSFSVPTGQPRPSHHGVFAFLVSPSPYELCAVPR

[4] = biological target: T2, Heat shock factor protein 1 (Mus musculus, UniProt P38532); experiment: decrease of HSF1-responsive luciferase luminescence – cell-based, NIH3T3, dose retest, confirmation (AID 2382); type: functional;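 also: NIH3T3 fibroblasts with HSF1-driven luciferase reporter stressed by proteasome inhibitor MG132; luminescence from HSF1-driven luciferase expression after 8 hours of MG132 stress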
T2 sequence (P38532 whole entry): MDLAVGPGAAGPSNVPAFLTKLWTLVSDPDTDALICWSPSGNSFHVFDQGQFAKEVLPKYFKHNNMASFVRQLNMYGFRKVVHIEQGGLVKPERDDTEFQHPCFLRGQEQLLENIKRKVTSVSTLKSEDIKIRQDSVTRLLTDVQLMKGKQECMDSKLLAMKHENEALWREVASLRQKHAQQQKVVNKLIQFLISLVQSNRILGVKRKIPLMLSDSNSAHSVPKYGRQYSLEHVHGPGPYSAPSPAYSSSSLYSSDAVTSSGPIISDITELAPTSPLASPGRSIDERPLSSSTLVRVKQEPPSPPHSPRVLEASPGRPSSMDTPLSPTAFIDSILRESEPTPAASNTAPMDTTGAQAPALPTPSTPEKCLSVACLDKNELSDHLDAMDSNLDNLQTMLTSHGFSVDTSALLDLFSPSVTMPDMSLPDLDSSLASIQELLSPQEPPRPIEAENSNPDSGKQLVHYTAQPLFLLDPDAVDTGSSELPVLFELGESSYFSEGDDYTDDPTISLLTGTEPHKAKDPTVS

[5] = tested on: Streptococcus; experiment: GAS UMAA2166 growth inhibition – luminescence, BacTiterGlo, counter-screen for streptokinase expression inhibitor project, dose response (AID 1915); type: functional, organism-based;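 also: potency for reduction of bacterial viability or growth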
[6] = tested on: Streptococcus sp. 'group A'; experiment: Streptococcus pyogenes SK(-)GAS viability under kanamycin – luminescence, BacTiterGlo, confirmation, counter-screen for streptokinase expression inhibitor project, dose response (AID 1900); type: functional, organism-based
[7] = biological target: T3, Streptokinase A (Streptococcus pyogenes serotype M1, UniProt P10520); experiment: viability-normalized secreted streptokinase activity reduction – plasminogen activation absorbance, OD405, dose response (AID 1914); type: functional, Streptococcus pyogenes M1 GAS;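 also: secreted streptokinase activity via plasminogen activation per viability signal from cell pellet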
T3 sequence (P10520 whole entry): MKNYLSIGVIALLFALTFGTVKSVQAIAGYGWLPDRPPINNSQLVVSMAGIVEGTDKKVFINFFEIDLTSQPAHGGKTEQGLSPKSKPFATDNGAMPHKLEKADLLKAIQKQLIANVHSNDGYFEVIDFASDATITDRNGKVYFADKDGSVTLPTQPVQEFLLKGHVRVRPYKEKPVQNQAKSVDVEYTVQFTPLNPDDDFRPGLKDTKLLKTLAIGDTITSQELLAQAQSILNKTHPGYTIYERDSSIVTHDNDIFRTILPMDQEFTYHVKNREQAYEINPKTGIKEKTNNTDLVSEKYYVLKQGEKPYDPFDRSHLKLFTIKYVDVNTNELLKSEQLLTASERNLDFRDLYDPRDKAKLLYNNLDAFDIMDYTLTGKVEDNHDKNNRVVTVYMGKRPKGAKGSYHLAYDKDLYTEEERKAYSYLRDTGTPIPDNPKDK

[8] = biological target: Cytochrome P450 2C19 (Homo sapiens, UniProt P33261); experiment: Cytochrome panel assay with activity outcomes. Panel member name: p450-cyp2c19 Compounds with AC50 equal or less than 10 uM are considered active; type: functional
Cytochrome P450 2C19, sequence (P33261 whole entry): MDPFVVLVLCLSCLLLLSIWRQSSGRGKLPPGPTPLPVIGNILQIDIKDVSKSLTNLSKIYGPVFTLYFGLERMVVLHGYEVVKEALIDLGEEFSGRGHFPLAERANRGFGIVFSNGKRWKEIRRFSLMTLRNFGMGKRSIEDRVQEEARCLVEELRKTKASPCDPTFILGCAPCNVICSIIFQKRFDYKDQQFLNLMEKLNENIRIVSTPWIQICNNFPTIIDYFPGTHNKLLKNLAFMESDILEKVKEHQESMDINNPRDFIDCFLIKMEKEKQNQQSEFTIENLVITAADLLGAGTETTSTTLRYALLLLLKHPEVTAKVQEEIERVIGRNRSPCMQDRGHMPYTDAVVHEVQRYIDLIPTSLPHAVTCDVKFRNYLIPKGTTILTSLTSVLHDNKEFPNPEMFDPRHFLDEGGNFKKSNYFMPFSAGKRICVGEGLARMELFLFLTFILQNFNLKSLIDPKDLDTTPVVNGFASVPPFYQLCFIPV

[9] = reduction of Shn3 3'UTR-driven luciferase in osteoblasts – cell-based, Clone20 osteoblasts, firefly luciferase, cherry-picked, dose response (AID 624132); type: functional;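 also: firefly luciferase luminescence from reporter carrying the Shn3 3'UTR in osteoblasts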
[10] = non-specific 3'UTR reporter inhibition in Clone20-Shn3RL – cell-based, Renilla luciferase, cherry-picked, counter-screen for Shn3 inhibitor project, dose response (AID 624133); type: functional
[11] = biological target: T4, Corticotropin-releasing factor receptor 2/Corticotropin-releasing factor-binding protein (Homo sapiens, UniProt P24387+Q13324); experiment: activators of CRF receptor 2 with binding protein – uHTS hits, confirmation (AID 602473); type: functional; conditions: read-out: EC50_Mean
T4 sequence (Q13324 whole entry): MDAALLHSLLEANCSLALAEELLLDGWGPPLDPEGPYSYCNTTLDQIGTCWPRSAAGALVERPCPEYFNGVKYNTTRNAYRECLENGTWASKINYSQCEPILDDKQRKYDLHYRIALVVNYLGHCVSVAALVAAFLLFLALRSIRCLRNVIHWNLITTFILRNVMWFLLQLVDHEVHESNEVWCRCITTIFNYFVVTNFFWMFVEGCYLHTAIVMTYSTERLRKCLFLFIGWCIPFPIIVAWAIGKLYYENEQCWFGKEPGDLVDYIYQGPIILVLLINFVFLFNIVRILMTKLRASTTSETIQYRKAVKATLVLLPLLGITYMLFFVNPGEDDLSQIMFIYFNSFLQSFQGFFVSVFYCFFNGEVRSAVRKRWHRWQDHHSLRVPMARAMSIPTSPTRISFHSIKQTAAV
T4 sequence (P24387 whole entry): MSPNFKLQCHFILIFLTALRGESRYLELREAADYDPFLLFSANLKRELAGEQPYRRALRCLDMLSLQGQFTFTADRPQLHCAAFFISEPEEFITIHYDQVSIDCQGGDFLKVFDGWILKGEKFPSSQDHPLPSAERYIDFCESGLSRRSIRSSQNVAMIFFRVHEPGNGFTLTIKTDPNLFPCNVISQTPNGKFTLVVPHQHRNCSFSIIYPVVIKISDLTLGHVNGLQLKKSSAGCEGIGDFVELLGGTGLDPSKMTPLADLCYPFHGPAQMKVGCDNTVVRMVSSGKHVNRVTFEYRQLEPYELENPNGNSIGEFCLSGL

Cc1ccc(S(=O)(=O)c2cc3ccccc3o/c2=N\c2ccc3c(c2)OCO3)cc1
AC50 [1]: 2.82 µM (inconclusive) | AC50 [2]: 3.55 µM (inconclusive) | AC50 [3]: 7.94 µM (inconclusive)

COc1ccc(C2=NN(S(C)(=O)=O)C(c3cccs3)C2)cc1OC (centres undefined)
EC50 [4]: > 195 µM (not active)

COc1ccc(C)cc1NC(=O)NC1CCCc2ccccc21 (centres undefined)
EC50 [5]: > 150 µM (not active) | EC50 [6]: > 150 µM (not active) | EC50 [7]: > 150 µM (not active)

CCn1c(C(C#N)/C(=N\S(=O)(=O)c2cccs2)c2ccccc2)nc2ccccc21 (centres undefined)
EC50 [4]: > 195 µM (not active)

COC(=O)c1ccccc1NC(=O)CSc1nnc(C(CO)NC(=O)c2ccccc2)n1C (centres undefined)
EC50 [4]: > 195 µM (not active)

COc1ccc(OC)c(C2N(c3cc(C)on3)C(=O)C3CCCN32)c1 (centres undefined)
AC50 [1]: 25.1 µM (inconclusive) | AC50 [8]: inconclusive

CCN(CC)CCOc1ccc2nc(N(C)C)sc2c1
AC50 [1]: 15.8 µM (inconclusive) | AC50 [3]: 15.8 µM (inconclusive)

NC1(C(=O)O)CCC1 [1-AMINOCYCLOBUTANE CARBOXYLIC ACID]
AC50 [1]: 39.8 µM (inconclusive)

COc1ccc(C2=NOC(C(=O)NCCN3CCOCC3)C2)cc1 (centres undefined)
AC50 [1]: 31.6 µM (inconclusive)

CCc1ccccc1N(CC(=O)N1CCCC1)S(C)(=O)=O
EC50 [4]: > 195 µM (not active)

CCOc1ccc(C(Nc2ccc(C)cc2)P2(=O)OCC(C)(C)CO2)cc1 (centres undefined)
AC50 [1]: 39.8 µM (inconclusive) | AC50 [2]: 0.02 µM (inconclusive)

CC(=O)N1c2ccc(S(=O)(=O)N3CCC(C(=O)N4CCN(c5ccccc5F)CC4)CC3)cc2CC1C (centres undefined)
AC50 [9]: 5.41 µM (active) | AC50 [10]: 2.42 µM (active)

C/C(CC(=O)Nc1ccccc1C(F)(F)F)=N\NC(=O)c1cnccn1
EC50 [4]: > 195 µM (not active)

CCc1ccc(NC(=O)C2C3CCC(O3)C2C(=O)O)cc1 (centres undefined)
EC50 [4]: 67 µM (active)

NC(=O)C1CCCN(C(=O)c2ccc3oc(Cc4ccc(Cl)cc4)nc3c2)C1 (centres undefined)
EC50 [4]: > 195 µM (not active)

O=S(=O)(c1ccccc1)N1CCN=C1SCc1c(F)cccc1Cl
EC50 [5]: > 150 µM (not active) | EC50 [7]: 18.4 µM (active)

O=C(CC(Nc1ccc(Cl)cc1Cl)C(=O)O)c1ccccc1 (centres undefined)
EC50 [4]: < 0.16 µM (active)

Cc1cccc(CCNC(=O)CC2C(=O)NCCN2Cc2ccccc2C)n1 (centres undefined)
EC50 [5]: > 150 µM (not active) | EC50 [6]: > 150 µM (not active) | EC50 [7]: > 150 µM (not active)

CN(C)c1ccc(C=C2SC(=S)NC2=O)cc1
EC50 [11]: 4.78 µM (active)

C(#Cc1ccccc1)CN1CCN(c2ccccn2)CC1
EC50 [4]: > 195 µM (not active)

CC1CCOC2(O1)C(=O)N(CN1CCN(c3ccccc3F)CC1)c1ccccc12 (centres undefined)
AC50 [1]: 2 µM (inconclusive) | AC50 ([8]; read-out: AC50): 11.2 µM (inconclusive) | AC50 [3]: 25.1 µM (inconclusive)
